Measurements reported in US12560054B2, “Use of carboxylates for carbon sequestration, improved oil recovery, and hydrogen storage and reproduction” (Board of Regents, The University of Texas System, priority 2021, dated 2026).
Where two headings read alike, the source gives them in different places.

Assays:
[1] = 347 K
Method: Contact Angle Experiments. Contact angle experiments were performed on calcite surfaces and Eagle Ford shale plates. […] After cutting the plates in the appropriate sizes, they were polished with a diamond grinder to result in a smooth surface. […] The pH values of the chemical solutions were measured before and after the experiment. […] The final pH level was adjusted to correspond to the glycine solution at the same concentration. […] Then, to start the experiment, the rock pieces were immersed in the solution and then oil droplets were placed at the bottom of the rock pieces. The solution chambers were put in the oven for equilibration. Then, images of the oil droplets were taken. A new oil droplet was placed after a certain number of days and the images were taken after equilibration. Contact angles reported in figures are the equilibrium contact angles. For example, if data is reported from day 7, that data is the final equilibrated contact angle of the droplet placed on day 7. Contact angles were measured from photos with the on-screen protractor software.

[2] = 337 K
Method: Contact Angle Experiments. Contact angle experiments were performed on calcite surfaces and Eagle Ford shale plates. […] After cutting the plates in the appropriate sizes, they were polished with a diamond grinder to result in a smooth surface.
RB was made first by adding salts and adjusting the total mass of the solution to 1 kg with deionized water. […] The final pH level was adjusted to correspond to the glycine solution at the same concentration. […]
After being aged in heavy oil for at least 3 weeks, the calcite or shale pieces were retrieved, and the excess oil was removed from the surfaces carefully. Then, to start the experiment, the rock pieces were immersed in the solution and then oil droplets were placed at the bottom of the rock pieces. The solution chambers were put in the oven for equilibration. Then, images of the oil droplets were taken. A new oil droplet was placed after a certain number of days and the images were taken after equilibration. Contact angles reported in figures are the equilibrium contact angles. For example, if data is reported from day 7, that data is the final equilibrated contact angle of the droplet placed on day 7. Contact angles were measured from photos with the on-screen protractor software.
A similar procedure was followed for another set of experiments with Eagle Ford shale plates.

[3] = pH measurements before and after the contact angle experiments with calcite; assay type: physicochemical; details: room temperature; for pH After: after contact angle experiment with calcite; for pH Before: before contact angle experiment
Method: RB was made first by adding salts and adjusting the total mass of the solution to 1 kg with deionized water. […] For solutions with HCl, HCl was added to solutions of formate and acetate at room temperature while stirring slowly. […] After aqueous solutions were prepared and degassed, they were placed in an oven at the desired reservoir temperature (347 K for calcite and 337 for Eagle Ford shale).

[4] = room temperature; cited from earlier work
[5] = Viscosity and density of formate solutions in NaCl+CaCl2 brine; assay type: physicochemical; details: solutions in the brine at 25, 50 and 75 °C over a wide range of shear rates
Method: Viscosity Measurements. […] A double wall couette geometry was used for the measurement. The viscosity measurements were taken at 25, 50, and 75° C. The sodium formate solutions were prepared and allowed to equilibrate in an oven set at the target temperature.
For viscosity measurements at 50 and 75° C., the temperature of the holding cup was raised to the target temperature using the circulating bath before putting the solution into the rheometer's sample holding cup.

[6] = near-saturated 45% (% w/w) sodium formate in water, 20 °C; cited from earlier work
[7] = with RB at reservoir and room temperatures

SMILES	contact angle on calcite ([1]; 2.5 and 5 wt % in RB, reached over time) [°]	final contact angle on Eagle Ford shale plates ([2]; 5 wt % in RB without HCl)	pH After ([3]; 0.5 wt % in RB)	pH Before ([3]; 0.5 wt % in RB)	pH After ([3]; 1 wt % in RB)	pH Before ([3]; 1 wt % in RB)	pH After ([3]; 2.5 wt % in RB)	pH Before ([3]; 2.5 wt % in RB)	pH After ([3]; 5 wt % in RB)	pH Before ([3]; 5 wt % in RB)	isoelectric point (pI) [4]	rheological behavior [5]	reported viscosity [6] [cp]	contact angle reduction on calcite ([1]; without HCl, in RB)	final contact angle on Eagle Ford shale plates ([2]; 5 wt % in RB with HCl)	aqueous stability [7]	contact angle on calcite ([1]; with HCl (pH adjusted to glycine level), in RB)	contact angle on calcite ([1]; without HCl, 0.5-5 wt % in RB)
NCC(=O)O [glycine, reference compound]	~40	60 °	7.94	6.68	7.73	6.42	7.53	6.24	7.62	6.10	5.97	–	–	–	–	–	–	–
O=C[O-].[Na+] [sodium formate]	–	–	–	–	–	–	–	–	–	–	–	Newtonian behavior	9.5	–	–	–	–	–
CC(=O)[O-].[Na+] [acetate, Sodium Acetate]	–	about 80 °	8.04	8.15	7.89	8.31	7.87	8.44	7.85	8.64	–	–	–	did not significantly reduce the contact angle	approximately 60 °	confirmed	–	–
O=CO [formate]	–	about 80 °	8.26	8.07	8.22	7.96	8.05	8.12	7.96	8.11	–	–	–	–	approximately 60 °	confirmed	50-60 °	approximately 80 °
